Laboratory results from patent publication US20250127168A1, “METHOD FOR PATHOGENS, MICROORGANISMS, AND PARASITES INACTIVATION” (New York Blood Center, Inc., priority 2018, published 2025).

Legend:
[1] = Neutralization of compound X by ethyl 2-mercaptoacetate (LCMS); type: physicochemical; conditions: PBS, RT; for Peak Areas (LCMS): 100 μM X + 10 mM ethyl 2-mercaptoacetate
Procedure: 100 μM solution of compound X in phosphate buffered saline was incubated at room temperature with 10 mM of ethyl-2-mercaptoacetate, and the change of the concentration of compound X, as well as the formation of the intermediate compound of neutralization (XXI) and the final compound of neutralization XXII was determined by LCMS analysis of the mixture. The reaction scheme of neutralization is presented below. The peak areas of compound X, intermediate neutralization product, Q1 (compound XXI) and final neutralization product, Q2 (compound XXII) are presented in the Table 8 below, and in FIG. 18.

[2] = test system: Human respiratory syncytial virus (RSV); test: Viral inactivation, modified plaque assay; type: cell-based; conditions: 6 h, Ringer's/Lactate solution
Procedure: Human respiratory syncytial virus (RSV) was inactivated by using Compound VI or Compound X. For that purpose, sucrose gradient-purified virus was treated with 100 μM of Compound VI and Compound X at RT. […] The virus titers were determined using standard 10× serial dilutions in a modified plaque assay. For mock-treated virus no significant changes in RSV infectivity were found even after 6 h incubation at RT (in different experiments, the reduction of titers were in the range of 0.11-0.36 Login PFU/mL).
Inactivation of RSV with different concentrations of Compound XVI at RT and 40° C. was performed as described in Example 9.

[3] = test system: Candida albicans; test: Fungal inactivation in growth media; type: cell-based; conditions: 250 μM
Procedure: (§1) Inactivation of blood-borne parasites, Plasmodium falciparum 3D7 and Babesia divergens Rouen, was conducted in fresh human red blood cells for 24 hours at physiological temperature. […] Above six logs inactivation of Candida albicans, a representative of pathogenic fungi, and three logs inactivation of Tetrahymena thermophila, a model organism for ciliated protozoa, were achieved by compound XIV at 250 μM in their respective growth media.

[4] = test system: Babesia divergens Rouen; test: Inactivation of blood-borne parasites in fresh human red blood cells; type: cell-based; conditions: 250 μM, 24 hours, physiological temperature
Procedure: as §1

[5] = test system: Plasmodium falciparum 3D7; test: as above; type: cell-based; conditions: 250 μM, 24 hours, physiological temperature
Procedure: as §1

[6] = test system: B. cereus; test: Bacterial inactivation in Ringer's solution, colony agar plate count; type: cell-based; conditions: 100 μM, RT, 1 h treatment
Procedure: (§2) A panel of G+F and G-bacteria were inactivated in their respective growth medium using compound VI, compound X, and compound XIV. All cells were grown in corresponding media to middle log phase, collected by centrifugation, re-suspended in Ringer's solution (RS), and treated at RT with 100 μM of compound VI, compound X, and compound XIV, which were added to the suspension as 100× concentrate in RS. Controls received RS only. At the end of the incubation, unreacted compound VI, compound X, and compound XIV were neutralized with 10 mM sodium thiophosphate during incubation at RT for 30 min. The viable cells were enumerated using serial dilutions by standard colony agar plate count. Table 1 summarizes the typical results of 1 h treatment of E. coli, P. fluorescens, Y. enterocolitica, B. cereus, S. aureus, and S. epidermidis with compound VI, compound X, and compound XIV.

[7] = test system: S. epidermidis; test: as above; type: cell-based; conditions: 100 μM, RT, 1 h treatment
Procedure: as §2

[8] = test system: Y. enterocolitica; test: as above; type: cell-based; conditions: 100 μM, RT, 1 h treatment
Procedure: as §2

[9] = test system: S. aureus; test: as above; type: cell-based; conditions: 100 μM, RT, 1 h treatment
Procedure: as §2

[10] = test system: P. fluorescens; test: as above; type: cell-based; conditions: 100 μM, RT, 1 h treatment
Procedure: as §2

[11] = test system: E. coli; test: as above; type: cell-based; conditions: 100 μM, RT, 1 h treatment
Procedure: as §2

| SMILES | Peak Areas (LCMS) ([1]; Time 6 min) | Peak Areas (LCMS) ([1]; Time 14.5 min) | Peak Areas (LCMS) ([1]; Time 23.1 min) | Peak Areas (LCMS) ([1]; Time 31.6 min) | Peak Areas (LCMS) ([1]; Time 40.2 min) | Peak Areas (LCMS) ([1]; Time 48.7 min) | Peak Areas (LCMS) ([1]; Time 57.3 min) | Peak Areas (LCMS) ([1]; Time 65.8 min) | Peak Areas (LCMS) ([1]; Time 74.3 min) | Peak Areas (LCMS) ([1]; Time 82.9 min) | Peak Areas (LCMS) ([1]; Time 91.4 min) | Peak Areas (LCMS) ([1]; Time 100.0 min) | Peak Areas (LCMS) ([1]; Time 108.5 min) | Peak Areas (LCMS) ([1]; Time 117.1 min) | Peak Areas (LCMS) ([1]; Time 125.6 min) | further results |
| --- | --- | --- | --- | --- | --- | --- | --- | --- | --- | --- | --- | --- | --- | --- | --- | --- |
| CCOC(=O)CSCCNCCCN(C)CCCN(C)CCCCN(C)CCCN1CC1 [XXI] | 181.6 | 307 | 363.5 | 375.8 | 390.1 | 368.5 | 338.6 | 331.1 | 306.5 | 268.6 | 256 | 227.8 | 202.2 | 195 | 174 | first order rate constant of concentration decrease ([1]; 10 mM ethyl 2-mercaptoacetate): 0.026 min⁻¹ |
| CN(CCCN1CC1)CCCN1CC1 [Compound XVI, 3-(aziridin-1-yl)-N-(3-(aziridin-1-yl)propyl)-N-methylpropan-1-amine] | – | – | – | – | – | – | – | – | – | – | – | – | – | – | – | RSV Inactivation (difference between TO titer and titer) ([2]; 40° C., 100 μM): >6.48 Log10 PFU/mL; RSV titer ([2]; 40° C., 100 μM): <0.52 Log10 PFU/mL; RSV Inactivation (difference between TO titer and titer) ([2]; 40° C., 250 μM): >6.48 Log10 PFU/mL; RSV titer ([2]; 40° C., 250 μM): <0.52 Log10 PFU/mL; RSV Inactivation (difference between TO titer and titer) ([2]; 40° C., 500 μM): >6.48 Log10 PFU/mL; RSV titer ([2]; 40° C., 500 μM): <0.52 Log10 PFU/mL; RSV Inactivation (difference between TO titer and titer) ([2]; RT, 100 μM): 5.02 Log10 PFU/mL; RSV titer ([2]; RT, 100 μM): 1.98 Log10 PFU/mL; RSV Inactivation (difference between TO titer and titer) ([2]; RT, 250 μM): 5.50 Log10 PFU/mL; RSV titer ([2]; RT, 250 μM): 1.50 Log10 PFU/mL; RSV Inactivation (difference between TO titer and titer) ([2]; RT, 500 μM): >6.48 Log10 PFU/mL; RSV titer ([2]; RT, 500 μM): <0.52 Log10 PFU/mL |
| CCOC(=O)CSCCNCCCN(C)CCCCN(C)CCCN(C)CCCNCCSCC(=O)OCC [XXII] | 48.7 | 131.9 | 214.4 | 280.7 | 349.3 | 397.1 | 424.3 | 479.4 | 489.3 | 498.6 | 513.2 | 527 | 520.5 | 548.8 | 536.5 | – |
| CN(CCCCN(C)CCCN(C)CCCN1CC1)CCCN(C)CCCN1CC1 [Compound XIV] | – | – | – | – | – | – | – | – | – | – | – | – | – | – | – | inactivation of Candida albicans [3]: Above six; reduction of the number of viable babesia [4]: 8 logs; reduction of the number of viable plasmodium organisms [5]: ≥ 7 logs; Titer [6]: ≤1.00 Log10CFU/mL; Titer [7]: 6.32 Log10CFU/mL; Titer [8]: 5.04 Log10CFU/mL; Titer [9]: 5.08 Log10CFU/mL; Titer [10]: ≤1.00 Log10CFU/mL; Titer [11]: 3.51 Log10CFU/mL |
